Test results from publication PMC10019194, “Killing Two Birds with One Stone: Discovery of Dual Inhibitors of Oxygen and Fumarate Respiration in Zoonotic Parasite, Echinococcus multilocularis” (Antimicrobial Agents and Chemotherapy, 2023).
Like-named read-outs stand apart in the source and are kept apart here.

Tests used:
[1] = test system: E. multilocularis protoscoleces; experiment: Ex vivo culture assay of live protoscoleces, viability by trypan blue exclusion; format: cell-based, Echinococcus multilocularis; conditions: 50 μM
Protocol: FIG 5 Viability of E. multilocularis protoscoleces in ex vivo culture assay. The E. multilocularis protoscoleces were treated with ascofuranone (AF) and its derivatives in culture under aerobic and anaerobic conditions (O2 <0.3%). Each compound was added to the culture medium at a final concentration of 50 μM. The control group was supplemented with 0.5% (vol/vol) dimethyl sulfoxide (DMSO). Atovaquone (ATV) was used as positive control and to ensure anaerobic conditions in the culture. The viability of protoscoleces was evaluated by their ability to exclude trypan blue. The data are presented as the mean ± standard deviation (n = 3).
The obtained protoscoleces were cultured in Connaught Medical Research Laboratories 1066 medium (Gibco, Grand Island, NY, USA) containing 0.5% (wt/vol) yeast extract (Difco Laboratories, Detroit, MI, USA), 2 mM L-glutamine (Gibco), 23 mM 4-(2-hydroxyethyl)-1-piperazineethanesulfonic acid, 0.5% (wt/vol) D (+)-glucose, 0.4 mM sodium taurocholate (Wako Pure Chemical Industries, Osaka, Japan), 57 mM sodium hydrogen carbonate, and 100 U/mL penicillin-streptomycin (Gibco). The protoscoleces were observed daily for seven consecutive days, and half of the medium was replaced on day 3. For anaerobic cultures, six-well plates were sealed in plastic containers with oxygen-detecting agents and oxygen scavengers (Aneromeito, Nissui Pharmaceutical, Tokyo, Japan) to keep the oxygen concentration below 0.3% at 37°C. The protoscoleces were treated with AF and its derivatives at a final concentration of 50 μM in the culture medium, and the duration of parasite elimination was investigated. The control group was supplemented with 0.5% (vol/vol) dimethyl sulfoxide (DMSO), and all conditions were assayed in triplicate. We used ATV in a culture assay as positive control and to ensure anaerobic conditions in the culture ([4], [5]). […] The viability of protoscoleces was determined after microscopic observation of more than 170 protoscoleces per well using the trypan blue exclusion test, as described previously ([4], [6], [33]).

[2] = target: complex I (NADH:quinone reductase) (Echinococcus multilocularis, UniProt A0A068Y553+A0A068Y9L9+Q9TE76); experiment: NADH:quinone reductase activity (complex I) in protoscoleces mitochondrial fraction; format: biochemical; conditions: E. multilocularis protoscoleces mitochondria; read-out: IC50 NADH:decyl rhodoquinone reductase (complex I)
Source text: (§1) Cyst tissues containing E. multilocularis (Nemuro strain) protoscoleces isolated from infected hispid cotton rats, Sigmodon hispidus, were used. The tissues were shredded through a metal mesh (0.5 mm diameter). Then, the tissues were repeatedly suspended and washed with physiological saline in a tall beaker to obtain protoscoleces by exploiting the buoyancy difference between protoscoleces and other tissue ([26]). The obtained protoscoleces were homogenized with a motor-driven homogenizer to prepare the mitochondrial fraction. The homogenate was diluted with mitochondrial preparation buffer (210 mM mannitol, 10 mM sucrose, 1 mM disodium EDTA, and 50 mM Tris-HCl [pH 7.5]) supplemented with 10 mM sodium malonate to 5 times the volume of the original protoscolex homogenate, and then centrifuged at 800 × g for 10 min (4°C) to remove cell debris and nuclei. The supernatant was then centrifuged at 8,000 × g for 10 min (4°C) to obtain the mitochondrial pellet. Next, the pellet was resuspended in mitochondrial preparation buffer (without malonate) and centrifuged at 8,000 × g for 10 min (4°C). The enriched mitochondrial fraction was finally suspended in approximately 0.5 to 1.0 mL of mitochondrial preparation buffer without malonate and frozen at −50°C. The mitochondrial fraction from A. suum was prepared essentially as described previously ([27], [28]).
NADH:quinone reductase activity (complex I), succinate:quinone reductase activity (complex II), and succinate:cytochrome c reductase activity (complexes II to III) were measured using a UV-3000 spectrophotometer (Shimadzu, Kyoto, Japan) as described previously ([4], [6]). Briefly, all enzyme assays using mitochondrial fractions were performed in 0.5- or 1.0-mL reaction mixtures at 25°C. A freeze/thaw process was performed before the assay to ensure that the mitochondrial membrane was permeable to the solutes. The final mitochondrial protein concentration was 50 μg/mL. NADH:quinone reductase activity was measured in 50 mM potassium phosphate buffer (pH 7.4) containing 2 mM potassium cyanide, KCN (Sigma, St. […] The activity assay was started by the addition of 50 μM NADH (Fujifilm-Wako, Tokyo, Japan) and recorded as the rate of NADH consumption as monitored at 340 nm (ε = 6.2 mM^−1 cm^−1). The reagents used in the SQR activity assay were mixed with the reaction buffer containing 50 mM potassium phosphate (pH 7.4) and 0.1% (wt/vol) sucrose monolaurate (DOJINDO, Kumamoto, Japan). […] The reaction was initiated by the addition of 10 mM disodium succinate to the mixture. NADH:cytochrome c activity (complex I to III) was measured in the reaction buffer (30 mM potassium phosphate, 1 mM MgCl2, pH 7.5) containing 2 mM KCN, 50 μM cytochrome c (Nacalai Tesque, Kyoto, Japan), and the inhibitor. The assay was performed after the addition of 100 mM malonate to block complex II activity. The reaction was started by adding 50 μM NADH to the mixture, and the enzyme activity was determined by monitoring the change in absorbance of cytochrome c at 550 nm (ε = 19 mM^−1 cm^−1). IC50 values of AF and its derivatives against the specific activities of mitochondrial respiratory enzymes in protoscoleces were determined. The IC50 of each compound was determined by calculating approximation lines from three or more points on either side of the IC50 concentration.

[3] = target: complex II (succinate:quinone reductase, SQR) (Echinococcus multilocularis, UniProt A0A1Z4EAW8+A0A1Z4EAX0+A0A1Z4EAX1); experiment: Succinate:quinone reductase (SQR) activity (complex II) in protoscoleces mitochondrial fraction; format: biochemical
Sequence of complex II (succinate:quinone reductase, SQR) (A0A1Z4EAV8 entry or part of it): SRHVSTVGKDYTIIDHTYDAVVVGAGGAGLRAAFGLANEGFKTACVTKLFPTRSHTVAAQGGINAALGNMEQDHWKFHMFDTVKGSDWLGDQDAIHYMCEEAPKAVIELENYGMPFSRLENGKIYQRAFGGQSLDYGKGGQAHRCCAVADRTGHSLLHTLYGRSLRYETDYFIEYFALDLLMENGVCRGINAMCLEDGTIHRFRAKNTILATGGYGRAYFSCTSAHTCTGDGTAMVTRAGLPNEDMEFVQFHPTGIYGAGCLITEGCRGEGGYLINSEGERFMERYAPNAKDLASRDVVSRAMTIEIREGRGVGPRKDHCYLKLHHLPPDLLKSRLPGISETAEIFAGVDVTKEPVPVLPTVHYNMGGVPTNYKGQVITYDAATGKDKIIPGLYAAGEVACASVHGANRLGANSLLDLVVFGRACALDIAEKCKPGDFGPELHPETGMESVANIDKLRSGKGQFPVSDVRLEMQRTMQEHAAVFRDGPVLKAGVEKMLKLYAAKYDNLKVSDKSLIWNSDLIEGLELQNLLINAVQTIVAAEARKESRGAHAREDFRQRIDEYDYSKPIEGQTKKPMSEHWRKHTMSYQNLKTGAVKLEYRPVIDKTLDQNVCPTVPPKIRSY
Sequence of complex II (succinate:quinone reductase, SQR) (A0A1Z4EAX1 entry or part of it): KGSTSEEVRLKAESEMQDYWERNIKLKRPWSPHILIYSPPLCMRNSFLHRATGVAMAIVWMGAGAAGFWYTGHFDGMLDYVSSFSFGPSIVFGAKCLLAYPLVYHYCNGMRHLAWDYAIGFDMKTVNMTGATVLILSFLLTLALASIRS
Sequence of complex II (succinate:quinone reductase, SQR) (A0A1Z4EAX0 entry or part of it): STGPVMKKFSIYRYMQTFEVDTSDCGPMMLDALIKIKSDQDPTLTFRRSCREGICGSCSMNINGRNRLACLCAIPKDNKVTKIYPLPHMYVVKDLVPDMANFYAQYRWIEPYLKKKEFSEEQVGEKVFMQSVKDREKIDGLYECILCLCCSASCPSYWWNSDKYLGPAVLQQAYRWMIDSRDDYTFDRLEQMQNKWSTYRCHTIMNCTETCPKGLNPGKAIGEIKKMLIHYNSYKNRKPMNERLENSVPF
Sequence of complex II (succinate:quinone reductase, SQR) (A0A1Z4EAW8 entry or part of it): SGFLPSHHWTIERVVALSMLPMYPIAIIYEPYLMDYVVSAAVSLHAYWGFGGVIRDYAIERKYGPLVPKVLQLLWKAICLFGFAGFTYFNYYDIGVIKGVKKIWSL
Source text: as §1
(§2) NADH:quinone reductase activity (complex I), succinate:quinone reductase activity (complex II), and succinate:cytochrome c reductase activity (complexes II to III) were measured using a UV-3000 spectrophotometer (Shimadzu, Kyoto, Japan) as described previously ([4], [6]). Briefly, all enzyme assays using mitochondrial fractions were performed in 0.5- or 1.0-mL reaction mixtures at 25°C. A freeze/thaw process was performed before the assay to ensure that the mitochondrial membrane was permeable to the solutes. The final mitochondrial protein concentration was 50 μg/mL. NADH:quinone reductase activity was measured in 50 mM potassium phosphate buffer (pH 7.4) containing 2 mM potassium cyanide, KCN (Sigma, St. Louis, MO, USA), and 60 μM decylubiquinone (Sigma). The activity assay was started by the addition of 50 μM NADH (Fujifilm-Wako, Tokyo, Japan) and recorded as the rate of NADH consumption as monitored at 340 nm (ε = 6.2 mM^−1 cm^−1). The reagents used in the SQR activity assay were mixed with the reaction buffer containing 50 mM potassium phosphate (pH 7.4) and 0.1% (wt/vol) sucrose monolaurate (DOJINDO, Kumamoto, Japan). SQR activity was determined by monitoring the change in absorbance of quinone at 278 nm (ε = 15 mM^−1 cm^−1) in the presence of 60 μM decylubiquinone, 2 mM KCN, and the inhibitor. The reaction was initiated by the addition of 10 mM disodium succinate to the mixture. NADH:cytochrome c activity (complex I to III) was measured in the reaction buffer (30 mM potassium phosphate, 1 mM MgCl2, pH 7.5) containing 2 mM KCN, 50 μM cytochrome c (Nacalai Tesque, Kyoto, Japan), and the inhibitor. The assay was performed after the addition of 100 mM malonate to block complex II activity. The reaction was started by adding 50 μM NADH to the mixture, and the enzyme activity was determined by monitoring the change in absorbance of cytochrome c at 550 nm (ε = 19 mM^−1 cm^−1). IC50 values of AF and its derivatives against the specific activities of mitochondrial respiratory enzymes in protoscoleces were determined. The IC50 of each compound was determined by calculating approximation lines from three or more points on either side of the IC50 concentration.

[4] = target: complex I and III (NADH:cytochrome c reductase) (Echinococcus multilocularis, UniProt Q9TE80); experiment: NADH:cytochrome c reductase activity (complex I to III) in protoscoleces mitochondrial fraction; format: biochemical; conditions: E. multilocularis protoscoleces mitochondria; mean ± SEM; Table 1; read-out: IC50 NADH:cytochrome c reductase (complex I and III)
Sequence of complex I and III (NADH:cytochrome c reductase) (Q9TE80 entry or part of it): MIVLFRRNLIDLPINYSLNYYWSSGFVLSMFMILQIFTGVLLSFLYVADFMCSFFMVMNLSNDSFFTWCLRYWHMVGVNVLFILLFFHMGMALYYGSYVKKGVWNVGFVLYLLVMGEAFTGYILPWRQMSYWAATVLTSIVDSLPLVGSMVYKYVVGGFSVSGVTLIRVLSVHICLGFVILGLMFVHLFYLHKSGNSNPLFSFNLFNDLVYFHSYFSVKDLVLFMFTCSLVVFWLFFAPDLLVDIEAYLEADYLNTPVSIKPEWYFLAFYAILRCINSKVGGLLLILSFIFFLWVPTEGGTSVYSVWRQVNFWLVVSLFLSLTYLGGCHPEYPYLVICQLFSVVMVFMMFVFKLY
Sequence of complex I and III (NADH:cytochrome c reductase) (Q9GP40 whole entry, further chain): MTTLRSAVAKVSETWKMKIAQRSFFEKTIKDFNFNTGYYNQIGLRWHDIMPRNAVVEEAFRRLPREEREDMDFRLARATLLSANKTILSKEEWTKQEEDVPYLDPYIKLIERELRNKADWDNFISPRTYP
Sequence of complex I and III (NADH:cytochrome c reductase) (Q9TE76 entry or part of it, further chain): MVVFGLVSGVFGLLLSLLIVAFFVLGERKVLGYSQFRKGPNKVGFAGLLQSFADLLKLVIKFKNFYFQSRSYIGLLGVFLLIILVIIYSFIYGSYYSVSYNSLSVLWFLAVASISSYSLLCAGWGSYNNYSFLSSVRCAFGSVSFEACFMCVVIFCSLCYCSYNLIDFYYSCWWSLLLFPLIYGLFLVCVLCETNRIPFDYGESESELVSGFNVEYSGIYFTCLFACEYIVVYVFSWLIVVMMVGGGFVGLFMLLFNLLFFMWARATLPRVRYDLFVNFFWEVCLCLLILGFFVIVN
Source text: as §1, §2

[5] = target: T1, A. suum complex II (Ascaris suum, UniProt O44074+P92506+P92507); experiment: Complex II activity of A. suum mitochondrial fraction; format: biochemical
T1 construct: from tissue; host or cells: A. suum mitochondrial fraction
T1 sequence (O44074 22-282): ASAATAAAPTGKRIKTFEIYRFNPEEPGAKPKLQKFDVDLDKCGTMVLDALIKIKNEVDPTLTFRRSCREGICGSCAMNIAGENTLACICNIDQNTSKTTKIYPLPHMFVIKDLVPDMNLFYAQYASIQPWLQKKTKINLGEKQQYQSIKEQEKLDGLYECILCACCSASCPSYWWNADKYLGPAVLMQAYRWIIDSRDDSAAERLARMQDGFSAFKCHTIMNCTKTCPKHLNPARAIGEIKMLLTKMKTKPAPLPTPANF
T1 sequence (P92506 32-188): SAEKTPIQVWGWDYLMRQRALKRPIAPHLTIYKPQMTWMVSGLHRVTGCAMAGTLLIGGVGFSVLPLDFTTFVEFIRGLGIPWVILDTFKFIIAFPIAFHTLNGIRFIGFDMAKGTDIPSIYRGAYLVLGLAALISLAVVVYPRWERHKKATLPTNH
T1 sequence (P92507 26-156): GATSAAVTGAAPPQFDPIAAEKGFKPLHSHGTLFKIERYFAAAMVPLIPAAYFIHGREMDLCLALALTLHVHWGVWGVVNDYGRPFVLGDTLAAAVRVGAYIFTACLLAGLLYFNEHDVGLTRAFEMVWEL
T1 sequence (Q33862 19-645 partner): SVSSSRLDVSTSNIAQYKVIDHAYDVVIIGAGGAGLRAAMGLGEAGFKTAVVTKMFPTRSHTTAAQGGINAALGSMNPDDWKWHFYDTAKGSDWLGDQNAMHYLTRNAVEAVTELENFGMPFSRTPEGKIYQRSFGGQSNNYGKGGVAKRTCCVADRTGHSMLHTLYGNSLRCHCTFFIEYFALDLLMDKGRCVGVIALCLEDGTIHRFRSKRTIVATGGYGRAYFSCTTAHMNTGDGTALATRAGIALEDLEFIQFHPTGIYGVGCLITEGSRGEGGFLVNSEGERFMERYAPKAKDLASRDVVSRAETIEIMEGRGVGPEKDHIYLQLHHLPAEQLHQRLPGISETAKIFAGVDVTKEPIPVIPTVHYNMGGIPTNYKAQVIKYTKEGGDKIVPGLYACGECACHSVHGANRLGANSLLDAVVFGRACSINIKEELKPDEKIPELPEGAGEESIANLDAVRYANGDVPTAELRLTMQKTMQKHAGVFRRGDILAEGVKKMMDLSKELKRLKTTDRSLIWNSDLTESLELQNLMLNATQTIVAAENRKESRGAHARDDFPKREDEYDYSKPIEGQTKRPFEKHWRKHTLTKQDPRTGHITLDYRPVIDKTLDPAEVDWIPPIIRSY
Source text: as §1, with “Next, the pellet was resuspended in mitochondrial preparation buffer (without malonate) and centrifuged at 8,000 × g for 10 min (4°C). The enriched mitochondrial fraction was finally suspended in approximately 0.5 to 1.0 mL of mitochondrial preparation buffer without malonate and frozen at −50°C. The mitochondrial fraction from A. suum was prepared essentially as described previously ([27], [28]).” left out
NADH:quinone reductase activity (complex I), succinate:quinone reductase activity (complex II), and succinate:cytochrome c reductase activity (complexes II to III) were measured using a UV-3000 spectrophotometer (Shimadzu, Kyoto, Japan) as described previously ([4], [6]). […] NADH:quinone reductase activity was measured in 50 mM potassium phosphate buffer (pH 7.4) containing 2 mM potassium cyanide, KCN (Sigma, St. Louis, MO, USA), and 60 μM decylubiquinone (Sigma). The activity assay was started by the addition of 50 μM NADH (Fujifilm-Wako, Tokyo, Japan) and recorded as the rate of NADH consumption as monitored at 340 nm (ε = 6.2 mM^−1 cm^−1). […] SQR activity was determined by monitoring the change in absorbance of quinone at 278 nm (ε = 15 mM^−1 cm^−1) in the presence of 60 μM decylubiquinone, 2 mM KCN, and the inhibitor. […] NADH:cytochrome c activity (complex I to III) was measured in the reaction buffer (30 mM potassium phosphate, 1 mM MgCl2, pH 7.5) containing 2 mM KCN, 50 μM cytochrome c (Nacalai Tesque, Kyoto, Japan), and the inhibitor. […]

[6] = target: succinate-cytochrome c reductase (complexes II to III) (Echinococcus multilocularis, UniProt Q9TE80); experiment: Succinate:cytochrome c reductase activity (complexes II to III); format: biochemical; conditions: read-out: IC50 against succinate-cytochrome c reductase
Protocol: NADH:quinone reductase activity (complex I), succinate:quinone reductase activity (complex II), and succinate:cytochrome c reductase activity (complexes II to III) were measured using a UV-3000 spectrophotometer (Shimadzu, Kyoto, Japan) as described previously ([4], [6]). Briefly, all enzyme assays using mitochondrial fractions were performed in 0.5- or 1.0-mL reaction mixtures at 25°C. A freeze/thaw process was performed before the assay to ensure that the mitochondrial membrane was permeable to the solutes. The final mitochondrial protein concentration was 50 μg/mL. NADH:quinone reductase activity was measured in 50 mM potassium phosphate buffer (pH 7.4) containing 2 mM potassium cyanide, KCN (Sigma, St. Louis, MO, USA), and 60 μM decylubiquinone (Sigma). The activity assay was started by the addition of 50 μM NADH (Fujifilm-Wako, Tokyo, Japan) and recorded as the rate of NADH consumption as monitored at 340 nm (ε = 6.2 mM^−1 cm^−1). […] SQR activity was determined by monitoring the change in absorbance of quinone at 278 nm (ε = 15 mM^−1 cm^−1) in the presence of 60 μM decylubiquinone, 2 mM KCN, and the inhibitor. […] NADH:cytochrome c activity (complex I to III) was measured in the reaction buffer (30 mM potassium phosphate, 1 mM MgCl2, pH 7.5) containing 2 mM KCN, 50 μM cytochrome c (Nacalai Tesque, Kyoto, Japan), and the inhibitor. […]

CC(=O)c1cc(Cl)c(O)c(C/C=C(\C)CCC=C(C)C)c1O [Compound D5]
day of complete elimination of protoscoleces ([1]; aerobic culture): ≤ 6 days | day of complete elimination of protoscoleces ([1]; anaerobic culture (O2 <0.3%)): ≤ 5 days | antiparasitic effect on protoscoleces in culture assay ([1]; both anaerobic and aerobic conditions): strong antiparasitic effect | IC50 [2]: > 50 µM | IC50 ([3]; IC50, inhibition of E. multilocularis SQR, Table 2, substitutions on the benzene group, mean ± SEM): 47 ± 11 nM | IC50 ([3]; IC50 Succinate:quinone reductase (SQR) (complex II), E. multilocularis protoscoleces mitochondria, mean ± SEM, Table 1): 47 ± 11 nM | IC50 [4]: 221 ± 44 nM | IC50 [5]: 11 µM | fold less potent inhibition of A. suum complex II than of E. multilocularis complex II ([5]; ratio of IC50 A. suum / E. multilocularis): 234 fold

CC(C)(C)c1ccc(CNC(=O)c2ccccc2C(F)(F)F)cc1 [NN23, reference compound]
IC50 ([3]; figure legends, supplement, read-out: IC50 against E. multilocularis complex II (SQR)): > 20000 nM | IC50 ([5]; A. suum mitochondrial fraction, read-out: IC50 against A. suum complex II): 0.005 µM

O=C1C(O)=C([C@H]2CC[C@H](c3ccc(Cl)cc3)CC2)C(=O)c2ccccc21 [ATV, Atovaquone, reference compound]
IC50 [6]: 2 nM | IC50 ([3]; IC50 against E. multilocularis complex II (SQR), figure legends, supplement): 690 nM
